Reference: ChEMBL document CHEMBL1125630, “Positional effects of sulfation in hirudin and hirudin PA related anticoagulant peptides” (J Med Chem, 1991)
pIC50: −log10 of the molar value.

test: In vitro inhibition fibrin clot formation after addition of thrombin.; format: functional, Homo sapiens

Row | pIC50 | Compound
1 | 6.92 | CC[C@H](C)[C@H](NC(=O)[C@@H]1CCCN1C(=O)C(CCC(=O)O)NC(=O)[C@H](Cc1ccc(O)cc1)NC(=O)CCC(=O)O)C(=O)N1CCC[C@H]1C(=O)NC(CCC(=O)O)C(=O)NC(CCC(=O)O)C(=O)N[C@@H](Cc1ccc(NS(=O)(=O)O)cc1)C(=O)N[C@@H](CC(C)C)C(=O)NC(CCC(=O)O)C(=O)O (stereo in doubt)
2 | 6.42 | CC[C@H](C)[C@H](NC(=O)[C@@H]1CCCN1C(=O)C(CCC(=O)O)NC(=O)[C@H](Cc1ccc(O)cc1)NC(=O)CCC(=O)O)C(=O)N1CCC[C@H]1C(=O)NC(CCC(=O)O)C(=O)NC(CCC(=O)O)C(=O)N[C@@H](Cc1ccc(N)cc1)C(=O)N[C@@H](CC(C)C)C(=O)NC(CCC(=O)O)C(=O)O (stereo in doubt)
3 | 5.60 | CC[C@H](C)[C@H](NC(=O)[C@@H]1CCCN1C(=O)C(CCC(=O)O)NC(=O)[C@H](Cc1ccc(O)cc1)NC(=O)CCC(=O)O)C(=O)N1CCC[C@H]1C(=O)NC(CCC(=O)O)C(=O)NC(CCC(=O)O)C(=O)N[C@@H](C)C(=O)N[C@@H](Cc1ccc(NS(=O)(=O)O)cc1)C(=O)NC(CCC(=O)O)C(=O)O (stereo in doubt)
4 | 5.80 | CC[C@H](C)[C@H](NC(=O)[C@@H]1CCCN1C(=O)C(CCC(=O)O)NC(=O)[C@H](Cc1ccccc1)NC(=O)CCC(=O)O)C(=O)N1CCC[C@H]1C(=O)NC(CCC(=O)O)C(=O)NC(CCC(=O)O)C(=O)N[C@@H](Cc1ccc(O)cc1)C(=O)N[C@@H](CC(C)C)C(=O)NC(CCC(=O)O)C(=O)O (stereo in doubt)
5 | 5.55 | CC[C@H](C)[C@H](NC(=O)[C@@H]1CCCN1C(=O)C(CCC(=O)O)NC(=O)[C@H](Cc1ccc(O)cc1)NC(=O)CCC(=O)O)C(=O)N1CCC[C@H]1C(=O)NC(CCC(=O)O)C(=O)NC(CCC(=O)O)C(=O)N[C@@H](Cc1ccc([N+](=O)[O-])cc1)C(=O)N[C@@H](CC(C)C)C(=O)NC(CCC(=O)O)C(=O)O (stereo in doubt)

Second part, the compound before the results:

Row | Compound | pIC50
6 | CC[C@H](C)[C@H](NC(=O)[C@@H]1CCCN1C(=O)C(CCC(=O)O)NC(=O)[C@H](Cc1ccccc1)NC(=O)CCC(=O)O)C(=O)N1CCC[C@H]1C(=O)NC(CCC(=O)O)C(=O)NC(CCC(=O)O)C(=O)N[C@@H](C)C(=O)N[C@@H](Cc1ccc(O)cc1)C(=O)NC(CCC(=O)O)C(=O)O (stereo in doubt) | 5.92
7 | CC[C@H](C)[C@H](NC(=O)[C@@H]1CCCN1C(=O)C(CCC(=O)O)NC(=O)[C@H](Cc1ccc(O)cc1)NC(=O)CCC(=O)O)C(=O)N1CCC[C@H]1C(=O)NC(CCC(=O)O)C(=O)NC(CCC(=O)O)C(=O)N[C@@H](C)C(=O)N[C@@H](Cc1ccc(N)cc1)C(=O)NC(CCC(=O)O)C(=O)O (stereo in doubt) | 5.54
8 | CC[C@H](C)[C@H](NC(=O)[C@@H]1CCCN1C(=O)C(CCC(=O)O)NC(=O)[C@H](Cc1ccccc1)NC(=O)CCC(=O)O)C(=O)N1CCC[C@H]1C(=O)NC(CCC(=O)O)C(=O)NC(CCC(=O)O)C(=O)N[C@@H](Cc1ccc(OS(=O)(=O)O)cc1)C(=O)N[C@@H](CC(C)C)C(=O)NC(CCC(=O)O)C(=O)O (stereo in doubt) | 7.06
9 | CC[C@H](C)[C@H](NC(=O)[C@@H]1CCCN1C(=O)C(CCC(=O)O)NC(=O)[C@H](Cc1ccc(O)cc1)NC(=O)CCC(=O)O)C(=O)N1CCC[C@H]1C(=O)NC(CCC(=O)O)C(=O)NC(CCC(=O)O)C(=O)N[C@@H](C)C(=O)N[C@@H](Cc1ccc([N+](=O)[O-])cc1)C(=O)NC(CCC(=O)O)C(=O)O (stereo in doubt) | 6.15
10 | CC[C@H](C)[C@H](NC(=O)[C@@H]1CCCN1C(=O)C(CCC(=O)O)NC(=O)[C@H](Cc1ccccc1)NC(=O)CCC(=O)O)C(=O)N1CCC[C@H]1C(=O)NC(CCC(=O)O)C(=O)NC(CCC(=O)O)C(=O)N[C@@H](C)C(=O)N[C@@H](Cc1ccc(OS(=O)(=O)O)cc1)C(=O)NC(CCC(=O)O)C(=O)O (stereo in doubt) | 6.52
11 | H-GDFEPIPEDAYDE-OH | 5.57
